Assay results reported in US10517889B2, “Modulators of SMAD7 expression” (Ionis Pharmaceuticals, Inc., priority 2017, dated 2019).
Strand notation (5' to 3'): a small letter for the sugar, then the base; units joined by * are phosphorothioate-linked, units joined directly phosphodiester-linked; [ ] holds rarer units or linkages, { } end groups; capitals alone tell only the bases. e = 2'-O-(2-methoxyethyl) (MOE); [5mC] = 5-methylcytosine; d = 2'-deoxy (DNA)

The substances below were run on human SMAD7 mRNA (assay: Antisense inhibition of human SMAD7 mRNA expression in Hep3B cells by 5-10-5 MOE gapmers, single concentration, electroporation, RT-PCR (Example 1, Study 1 and 2)). Conditions: Study 2, electroporation with 15,000 nM antisense oligonucleotide, 5-10-5 MOE gapmers targeting SEQ ID NO: 1 and 2.
Type: cell-based
How it was run: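 Readout is percent SMAD7 mRNA inhibition versus untreated cells, measured by qRT-PCR (RTS5062) and corrected for total RNA by RIBOGREEN. Oligonucleotide, 5,000 nM or 15,000 nM, was delivered by electroporation into Hep3B cells at 20,000 per well. RNA was collected about 24 h later.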
For “771495 (antisense e[5mC]*eT*eA*eG*e[5mC]*d[5mC]*dA*dG*d[5mC]*dA*d[5mC]*dG*dG*dG*d[5mC]*eA*eG*e[5mC]*eT*eG) [compound 771495]”, the “% inhibition of SMAD7 mRNA expression” value was 18%.
With “771463 (antisense eG*eG*e[5mC]*eT*e[5mC]*d[5mC]*dT*dG*dG*dA*d[5mC]*dA*d[5mC]*dA*dG*eT*eA*eG*eA*eG) [compound 771463]” the “% Inhibition” value was 10%.
In the case of “771638 (antisense eT*eA*eG*eG*eA*dT*dG*dG*dT*dA*d[5mC]*d[5mC]*dT*dT*dG*eG*eG*eT*eT*eA) [compound 771638]”, the “% inhibition of SMAD7 mRNA expression” value is reported as 41%.
With “771811 (antisense eT*eG*e[5mC]*e[5mC]*eT*d[5mC]*dA*dT*dT*d[5mC]*dT*dT*dT*d[5mC]*d[5mC]*eA*eG*eG*eA*e[5mC]) [compound 771811]” the “% Inhibition” value was 50%.
With “771727 (antisense eA*eA*e[5mC]*eA*eT*dG*dG*d[5mC]*d[5mC]*dT*dT*dT*d[5mC]*dT*dT*eT*eT*e[5mC]*eT*eA) [compound 771727]” the “% Inhibition” value was 0%.
For “771844 (antisense eG*eA*eA*eG*eG*dA*d[5mC]*d[5mC]*dA*dA*dG*dT*d[5mC]*d[5mC]*d[5mC]*eT*e[5mC]*eT*e[5mC]*e[5mC]) [compound 771844]”, the “% Inhibition” value was 0%.
“771807 (antisense eG*e[5mC]*e[5mC]*e[5mC]*eT*d[5mC]*dA*d[5mC]*dT*d[5mC]*d[5mC]*dA*d[5mC]*dA*dA*eT*eG*eG*e[5mC]*eA) [compound 771807]” was tested, and the “% Inhibition” value was 51%.
With “771910 (antisense eA*eG*eG*e[5mC]*eA*d[5mC]*dG*dG*d[5mC]*d[5mC]*dG*d[5mC]*d[5mC]*dT*d[5mC]*e[5mC]*eT*eG*e[5mC]*eA) [compound 771910]” the “% Inhibition” value was 4%.
With “771871 (antisense e[5mC]*eT*e[5mC]*e[5mC]*e[5mC]*dT*d[5mC]*dT*dG*d[5mC]*d[5mC]*d[5mC]*d[5mC]*dA*dG*eG*eA*eT*eT*e[5mC]) [compound 771871]” the “% Inhibition” value was 15%.
“771739 (antisense eT*eT*eT*eG*eA*dA*dA*dA*d[5mC]*d[5mC]*d[5mC]*dA*dA*d[5mC]*d[5mC]*e[5mC]*eT*eG*eG*eG) [compound 771739]” was tested, and the “% Inhibition” value was 33%.
In the case of “771684 (antisense eA*eT*eT*eT*eG*dG*d[5mC]*dA*dT*dT*dT*dG*dT*dT*dA*eT*eT*eT*eG*e[5mC]) [compound 771684]”, the “% inhibition of SMAD7 mRNA expression” value is reported as 0%.
In the case of “771935 (antisense eG*eG*eA*eA*eG*dG*dA*d[5mC]*dA*d[5mC]*dA*dT*dT*dG*dG*e[5mC]*eA*eT*e[5mC]*eA) [compound 771935]”, the “% Inhibition” value is reported as 23%.
With “771472 (antisense eA*eT*eT*eT*eT*dG*d[5mC]*dT*d[5mC]*d[5mC]*dG*d[5mC]*dA*d[5mC]*d[5mC]*eT*eT*e[5mC]*eT*eG) [compound 771472]” the “% inhibition of SMAD7 mRNA expression” value was 0%.
For “771493 (antisense e[5mC]*eG*eG*eG*e[5mC]*dA*dG*d[5mC]*dT*dG*d[5mC]*dT*dG*dA*dT*eG*eA*eA*e[5mC]*eT) [compound 771493]”, the “% inhibition of SMAD7 mRNA expression” value was 17%.

Same assay, conditions: electroporation with 15,000 nM antisense oligonucleotide (Study 2), 5-10-5 MOE gapmers targeting SEQ ID NO: 1 and 2
“771728 (antisense eA*eA*e[5mC]*eT*eT*dT*dT*d[5mC]*dT*d[5mC]*d[5mC]*d[5mC]*d[5mC]*d[5mC]*dT*eT*eG*eG*eA*eA) [compound 771728]” was tested, and the “% Inhibition of SMAD7 mRNA” value was 7%.
In the case of “771602 (antisense eG*eG*eA*eG*eA*dT*d[5mC]*d[5mC]*dA*dG*dG*dA*dG*d[5mC]*dA*eG*eA*eT*eG*eG) [compound 771602]”, the “% inhibition of SMAD7 mRNA expression” value is reported as 39%.
With “771617 (antisense e[5mC]*eA*eG*eT*eG*d[5mC]*dT*dG*dA*dG*d[5mC]*dT*dG*dG*dT*eT*eT*eT*e[5mC]*eT) [compound 771617]” the “% inhibition of SMAD7 mRNA expression” value was 10%.
In the case of “771832 (antisense eA*e[5mC]*e[5mC]*eT*eT*dT*d[5mC]*dA*d[5mC]*dG*dA*dA*d[5mC]*d[5mC]*dA*e[5mC]*eT*eT*eT*eT) [compound 771832]”, the “% Inhibition of SMAD7 mRNA” value is reported as 31%.
In the case of “771888 (antisense eT*e[5mC]*eG*e[5mC]*e[5mC]*dA*dT*dG*dG*dA*dG*dA*dA*dT*dG*eT*eA*eA*eT*eT) [compound 771888]”, the “% Inhibition of SMAD7 mRNA” value is reported as 21%.
In the case of “771497 (antisense eG*eA*eA*eG*eA*dT*dG*dA*d[5mC]*d[5mC]*dT*d[5mC]*dT*dA*dG*e[5mC]*e[5mC]*eA*eG*e[5mC]) [compound 771497]”, the “% Inhibition of SMAD7 mRNA” value is reported as 25%.
With “771640 (antisense eG*eG*eT*eG*eT*d[5mC]*dA*dG*d[5mC]*d[5mC]*dT*dA*dG*dG*dA*eT*eG*eG*eT*eA) [compound 771640]” the “% Inhibition of SMAD7 mRNA” value was 35% and the “% inhibition of SMAD7 mRNA expression” value was 0%.

Same assay, conditions: electroporation, 5,000 nM, approximately 24 hours, relative to untreated control cells, gapmers targeting SEQ ID NO: 1 and 2
“771811 (antisense eT*eG*e[5mC]*e[5mC]*eT*d[5mC]*dA*dT*dT*d[5mC]*dT*dT*dT*d[5mC]*d[5mC]*eA*eG*eG*eA*e[5mC]) [compound 771811]” was tested, and the “% inhibition of SMAD7 mRNA expression” value was 48%.
In the case of “771739 (antisense eT*eT*eT*eG*eA*dA*dA*dA*d[5mC]*d[5mC]*d[5mC]*dA*dA*d[5mC]*d[5mC]*e[5mC]*eT*eG*eG*eG) [compound 771739]”, the “% inhibition of SMAD7 mRNA expression” value is reported as 22%.

Same assay, conditions: electroporation, 15,000 nM antisense oligonucleotide (Study 2), 5-10-5 MOE gapmers targeting SEQ ID NO: 1 and 2
For “771728 (antisense eA*eA*e[5mC]*eT*eT*dT*dT*d[5mC]*dT*d[5mC]*d[5mC]*d[5mC]*d[5mC]*d[5mC]*dT*eT*eG*eG*eA*eA) [compound 771728]”, the “% inhibition of SMAD7 mRNA expression” value was 1%.
With “771530 (antisense eA*eA*eA*eA*eA*d[5mC]*dG*dA*d[5mC]*d[5mC]*dA*dA*dA*dG*dA*eG*eT*eT*eT*eG) [compound 771530]” the “% inhibition of SMAD7 mRNA expression” value was 16%.
“771546 (antisense eT*eA*e[5mC]*e[5mC]*eT*dG*d[5mC]*d[5mC]*d[5mC]*d[5mC]*dT*dT*d[5mC]*dT*dT*e[5mC]*e[5mC]*eA*eA*eA) [compound 771546]” was tested, and the “% inhibition of SMAD7 mRNA expression” value was 26%.
With “771832 (antisense eA*e[5mC]*e[5mC]*eT*eT*dT*d[5mC]*dA*d[5mC]*dG*dA*dA*d[5mC]*d[5mC]*dA*e[5mC]*eT*eT*eT*eT) [compound 771832]” the “% inhibition of SMAD7 mRNA expression” value was 11%.
For “771888 (antisense eT*e[5mC]*eG*e[5mC]*e[5mC]*dA*dT*dG*dG*dA*dG*dA*dA*dT*dG*eT*eA*eA*eT*eT) [compound 771888]”, the “% inhibition of SMAD7 mRNA expression” value was 0%.
With “771435 (e[5mC]*eA*eG*e[5mC]*eT*dG*d[5mC]*d[5mC]*dG*d[5mC]*dT*d[5mC]*d[5mC]*dT*dT*e[5mC]*eA*eG*eT*eT; antisense) [compound 771435]” the “% inhibition of SMAD7 mRNA expression” value was 29%.
For “771785 (antisense eA*e[5mC]*eT*eT*eT*dG*dA*dA*dG*d[5mC]*d[5mC]*dT*dT*dT*dG*eG*eA*eA*eT*eT) [compound 771785]”, the “% inhibition of SMAD7 mRNA expression” value was 12%.
With “771497 (antisense eG*eA*eA*eG*eA*dT*dG*dA*d[5mC]*d[5mC]*dT*d[5mC]*dT*dA*dG*e[5mC]*e[5mC]*eA*eG*e[5mC]) [compound 771497]” the “% inhibition of SMAD7 mRNA expression” value was 0%.
In the case of “771802 (antisense e[5mC]*e[5mC]*eT*eT*eG*dA*dG*dA*dT*d[5mC]*d[5mC]*dA*dT*dG*dG*eG*eA*eG*e[5mC]*eA) [compound 771802]”, the “% inhibition of SMAD7 mRNA expression” value is reported as 40%.

Same assay, conditions: electroporation, 15,000 nM, approximately 24 hours, gapmers targeting SEQ ID NO: 3 and 4
“771344 (antisense eA*eT*e[5mC]*eT*eG*dG*dA*d[5mC]*dA*dG*dT*d[5mC]*dA*dG*dT*eT*eG*eG*eT*eT) [compound 771344]” was tested, and the “% inhibition of SMAD7 mRNA expression” value was 17%.

Same assay, conditions: electroporation, 15,000 nM, approximately 24 hours, relative to untreated control cells, gapmers targeting SEQ ID NO: 1 and 2
In the case of “771352 (antisense eT*e[5mC]*e[5mC]*eA*eA*d[5mC]*dT*d[5mC]*dT*d[5mC]*dT*dT*dT*dG*d[5mC]*e[5mC]*e[5mC]*e[5mC]*eA*eA) [compound 771352]”, the “% inhibition of SMAD7 mRNA expression” value is reported as 54%.
For “771541 (antisense eT*e[5mC]*eT*eT*eT*dT*d[5mC]*dA*dT*dA*dA*dG*d[5mC]*dT*dA*eT*eT*eT*e[5mC]*eT) [compound 771541]”, the “% inhibition of SMAD7 mRNA expression” value was 35%.
For “771901 (antisense eA*eA*eA*eA*eT*dG*d[5mC]*d[5mC]*d[5mC]*dA*d[5mC]*d[5mC]*dA*dG*dT*e[5mC]*eT*eT*e[5mC]*e[5mC]) [compound 771901]”, the “% inhibition of SMAD7 mRNA expression” value was 41%.
For “771677 (antisense eT*eT*eT*e[5mC]*eT*dT*dG*dT*dT*dT*dA*dT*dA*d[5mC]*dA*e[5mC]*eA*eT*eT*eG) [compound 771677]”, the “% inhibition of SMAD7 mRNA expression” value was 21%.
“771917 (antisense e[5mC]*e[5mC]*eA*eG*eA*d[5mC]*d[5mC]*d[5mC]*d[5mC]*dT*dT*d[5mC]*dT*dT*dA*eA*eA*eT*eT*eT) [compound 771917]” was tested, and the “% inhibition of SMAD7 mRNA expression” value was 22%.
“771549 (antisense e[5mC]*e[5mC]*eT*e[5mC]*eT*dT*d[5mC]*d[5mC]*dT*dA*dT*d[5mC]*dA*dG*dG*eG*eT*eG*eT*e[5mC]) [compound 771549]” was tested, and the “% inhibition of SMAD7 mRNA expression” value was 49%.
